{
  "source": "patent EP0421697A2",
  "about": "“Contrast agents and methods for enhancing magnetic resonance imaging” (SMITHKLINE BEECHAM CORPORATION, priority 1989, dated 1991)",
  "key": {"[1]": {"set-up": "species or system Male Sprague-Dawley rats", "details": "rat, in vivo", "experimental": "Male Sprague-Dawley rats (200 to 350 g; Charles River Breeding Laboratories, Raleigh, NC) were anesthetized with Inactin (100 mg/kg, i.p.; Byk Gulden). A jugular vein and femoral artery were isolated and cannulated with PE-50 polyethylene tubing (Clay-Adams). The femoral artery cannula was connected to a pressure transducer (Gould-Statham Model P23id) for blood pressure and heart rate recording. The jugular vein cannula was connected to an infusion pump (Sage Model 352) and an infusion of inulin (Inutest, Laevasan-Gesellschaft; 10% in 0.9% NaCl) and ytterbium-diethyltriaminepentaacetic acid (Yb-DTPA in water 6.0 mg/ml) was initiated at a rate of […]. […]\nUrine volumes were measured gravimetrically (specific gravity = 1) and 50 µl was removed for determination of inulin and Yb-DTPA concentrations. Inulin concentrations in plasma and urine samples were determined according to the method of Heyrosky (1956). Yb concentrations were determined by inductively-coupled plasma emission spectrometry using a Model JY-38P (Instruments SA, Inc.) and a grating of 3600 lines/mm. The 369.42 nm Yb line and 5 one-second measurements were taken at the end of each sample aspiration to provide an average reading (Bumbier, et al., 1984). […] Plasma concentrations of inulin and Yb-DTPA for C₂ were estimated from values measured for C₁ and C₃. […]"}, "normal rat kidney": {"system": "normal rat kidney", "experiment": "MR imaging of rat kidney after i.v. bolus of Yb-DTPA (signal intensity ratio Ipapilla/Imuscle over time)", "format": "in vivo, rats", "details": "1 ml of a 50 mM solution in saline, GE SIGNA 1.5T, images every 20 seconds, Figure 1", "text": "After administration of the chelate solution to the subject, imaging with any conventional MR imaging system may be begun. Preferably, a fast imaging sequence, such as gradient echo imaging is used. […] This graph plots the ratio of signal intensity of region of interest to signal intensity of surrounding muscle tissue over time, as shown, for example in Figure 1, discussed below.\nAs in the above comparative example, rats were provided with an infusion line and strapped in an MRI magnet GE SIGNA 1.5T. 1 ml of a 50 mM solution of Yb-DTPA in saline was injected (intravenously) as a bolus. Images were collected every 20 seconds and the signal intensity from the rat papilla (Ipapilla) and signal intensity for the surrounding rat muscle (Imuscle) were measured. […] The area under the curve is an index of GFR."}},
  "data": [
    {"substance": "ytterbium-diethylenetriamine pentaacetic acid [Yb-DTPA]", "values": [
      {"measurement": "Mean (± SEM) renal clearance (Cin, CYb)", "setting": "[1]", "result": "1101 ± 47"},
      {"measurement": "share of renal elimination via glomerular filtration", "setting": "[1]", "result": "~85", "unit": "%"},
      {"measurement": "ratio of signal intensities Ipapilla/Imuscle against time", "setting": "normal rat kidney", "result": "sharp decrease in the ratio and the slow rise"}
    ]}
  ]
}
